Test results: publication PMC6272797, “Antitrypanosomal Acetylene Fatty Acid Derivatives from the Seeds of Porcelia macrocarpa (Annonaceae)” (Molecules, 2015)
Where two headings read alike, the source gives them in different places.

Tests used:
[1] = Cytotoxicity against mammalian cells (MTT assay); assay type: cell-based; conditions: mouse, NCTC clone 929 cells
Experimental: The 50% cytotoxic concentration (CC50) was determined in NCTC clone 929 cells. NCTC cells were seeded at 6 × 10^4 cells/well in 96-well microplates at 37 °C in a 5% CO2. […] The viability of the cells was determined by MTT assay at 570 nm. The Selectivity Index (SI) was determined considering the following equation: CC50 NCTC cells/IC50 trypomastigotes. […] The data obtained represent the mean and standard deviation of duplicate samples from three independent assays. The IC50 and CC50 values were calculated using sigmoid dose-response curves in Graph Pad Prism 5.0 software (GraphPad Software, San Diego, CA, USA), and the 95% confidence intervals are included in parentheses.

[2] = test system: T. cruzi trypomastigotes (Y strain); test: Activity against T. cruzi trypomastigotes (MTT viability assay); assay type: cell-based, Trypanosoma cruzi; conditions: for SI (selectivity index): CC50 NCTC cells/IC50 trypomastigotes; for IC50: Trypanosoma cruzi, free trypomastigotes, read-out: IC50 T. cruzi trypomastigote; for IC50 / antitrypanosomal activity against T. cruzi trypomastigotes (in words): MTT; for antitrypanosomal activity against T. cruzi trypomastigotes (in words): in vitro
Experimental: T. cruzi trypomastigotes (Y strain) were maintained in LLC-MK2 (ATCC CCL 7) cells using RPMI-1640 medium supplemented with 2% FBS at 37 °C and 5% CO2-humidified incubator [34].
Free trypomastigotes obtained from LLC-MK2 cultures were counted in a Neubauer hemocytometer and seeded at 1 × 10^6/well in 96-well microplates. Tested compounds were incubated to the highest concentration of 300 μg/mL for 24 h at 37 °C in a 5% CO2 humidified incubator; using benznidazole as standard drug. The viability of the trypomastigotes was verified by the MTT assay as previously described.
The data obtained represent the mean and standard deviation of duplicate samples from three independent assays. The IC50 and CC50 values were calculated using sigmoid dose-response curves in Graph Pad Prism 5.0 software (GraphPad Software, San Diego, CA, USA), and the 95% confidence intervals are included in parentheses.

[3] = highest concentration 100 µg/mL, CI95% in parentheses
[4] = 24 h, 24 h, highest concentration 300 µg/mL, CI95% in parentheses

Compound | CC50 at 48 h [1] [µM] | CC50 at 48 h [1, 3] [µg/mL] | SI (selectivity index) [2] | IC50 [2, 4] [µg/mL] | IC50 ([2]; 24 h, 24 h) [µM] | trypomastigote forms of T. cruzi killed ([2]; at the highest tested concentration (300 µg/mL), 24 h) [%] | effectiveness relative to the standard drug benznidazole ([2]; comparison of IC50 against trypomastigotes) | antitrypanosomal activity against T. cruzi trypomastigotes (in words) [2]
O=C(Cn1ccnc1[N+](=O)[O-])NCc1ccccc1 [Benznidazole, benznidazole, reference compound] | 484 | 126 | 0.9 | 139 | 534 | – | – | –
CCCCCCCCCCCCCCCCCC(=O)O [Compound 1a, octadecanoic acid] | – | – | – | > 300 | – | – | – | –
CCCC#CC#CCCCCCCCCCCC(=O)O [Compound 1, 12,14-octadecadiynoic acid] | 160 | 44.3 | 4.1 | 10.7 | 38.8 | 100 | approximately ten times more effective | displayed in vitro activity
CCCC#CC#CCCCCCCCCCCC(=O)OCC(O)COC(=O)CCCCCCC/C=C\CCCCCCCC (stereo not drawn) [Compound 3, α-macrocarpoyl-α'-oleylglycerol] | – | – | – | > 300 | – | – | – | inactive
CCCC#CC#CCCCCCCCCCCC(=O)OCC(COC(=O)CCCCCCCCCCC#CC#CCCC)OC(=O)CCCCCCC/C=C\CCCCCCCC [Compound 2, α,α'-dimacrocarpoyl-β-oleylglycerol] | – | – | – | > 300 | – | – | – | inactive
